{"source": "patent US9572831B2", "about": "“Composition and method for sulfated non-anticoagulant low molecular weight heparins in cancer and tumor metastasis” (priority 2013, dated 2017)", "key": {"[1]": {"system": "MCF7 DOX resistant cancer cells", "assay": "Orthotopic implant of MCF7 DOX resistant cells in nude mice", "format": "in vivo", "details": "10 mg/Kg, SC daily for 15 days, vs control", "experimental": "Immune-deficient female NCr nude homozygous mice aged 5-6 weeks weighing 18-20 g were purchased from Harlan Laboratories (Indianapolis, Ind.). All animal studies were conducted in accordance with the institutional guidelines for humane animal treatment. Mice were maintained under specific pathogen-free conditions and housed under controlled conditions of temperature (20-24° C.), humidity (60-70%), and 12 h light/dark cycle with ad libitum access to water and food. Mice were allowed to acclimatize for 5 days prior to the start of study.\nOrthotopic implant of 0.5 million of MCF7 DOX resistant cancer cells in nude mice result in progressive rapid tumor growth approaching 150 mm3 after 5 days of implant."}, "MPanc96-luc cells": {"system": "MPanc96-luc cells", "format": "in vivo, athymic nude mice", "details": "S-NACH 20 mg/kg, tinzaparin 5 mg/kg", "experimental": "MPanc96-luc cells were harvested as described above and were orthotopically implanted (2×10^5 cells in 50 μl PBS per mouse) in the pancreas of anesthetized athymic nude mice. Just before treatment initiation, animals (n=10 per group) were randomized by tumor mass detected by an in vivo imaging system (IVIS, described below). Heparin derivatives S-NACH at 20 mg/kg and tinzaparin at 5 mg/kg were administered subcutaneously daily. Gemcitabine at 100 mg/kg was injected intraperitoneally twice a week alone or in combination with either S-NACH or tinzaparin. All mice used for treatment response evaluations were euthanized after 28 days. See Table 2 for the protocol of the study. Imaging was performed once per week to monitor tumor growth. Mice bearing MPanc96-luc tumors were anaesthetized using isoflurane, injected subcutaneously with 50 μl D-luciferin (30 mg/ml), then imaged. Photographic and luminescence images were taken at constant exposure time. Xenogen IVIS® Living Image software version 3.2 was used to quantify non-saturated bioluminescence in regions of interest. Light emission between 5.5×10^6-7.0×10^10 photons was assumed to be indicative of viable luciferase-labeled tumor cells while emissions below this range were considered as background. Bioluminescence was quantified as photons/second for each region of interest. In vivo tumor kinetic growth and metastasis were monitored by signal intensity. Ex vivo imaging was performed to confirm the signal intensity in the tumors after the termination. All specimens were analyzed by histology for routine analysis. Specimens were fixed in 10% buffered formalin, processed routinely, and embedded in paraffin. Then, after fixation, the specimens were transferred into the embedding chambers to hold the specimens in position until the paraffin became solid to prevent further rotation. Four μm serial sections were cut, and then stained using haematoxylin and eosin. Sections were evaluated for various pathologic parameters using a light microscope (Leica, Buffalo Grove, Ill.)."}, "[2]": {"assay": "Bleeding time (tail transection)", "format": "in vivo, mice", "details": "dose not stated; vs control", "experimental": "Bleeding time in mice was tested during the period of receiving test compounds. Mice were anesthetized with isoflurane inhalation. By using a scalpel, 0.5 cm of the distal end of the tail was transected, and the remaining length of tail was immersed immediately into a 37° C. solution of saline. Bleeding time was measured from the time of tail transection until visible bleeding could no longer be detected. The experiment was repeated 3 times with different groups and concentrations."}, "human umbilical vein": {"system": "human umbilical vein", "assay": "In vitro human vessel perfusion model", "format": "cell-based", "details": "FIG. 3", "source_text": "Based on published data obtained on the tumor/vessel adherence characteristics in this model [Mousa S A., Comparative pharmacodynamic assessment of the antiangiogenesis activity of heparin and low-molecular-weight heparin fractions: structure function relationship, Clin Appl Thromb Hemost, 2013, 19(1):48-54], umbilical vein was utilized for all studies. Following informed consent, fresh umbilical cord was obtained, using a sterile technique, from the placenta following normal delivery […] from patients at local hospitals. Approximately 20 cm of the cord is excised, rinsed and wiped free of blood using cold 0.9% saline and sterile gauze. Then cold saline was used to flush the vein clean of blood. Two sections of umbilical cord (approximately 3 cm each) are cut longitudinally to expose the vein surface and are pinned to the silastic base of the chamber using 27 G×1 inch needles. […]\nThe vein segments were perfused for 24 hours with cancer cells in platelet-rich plasma (PRP) under venous flow conditions (70 ml/min). […] Blood gases of the perfusate were measured 15 minutes after the start and just prior to the end of the perfusion period to confirm that physiological conditions were maintained. […] Statistical significance was determined by using a paired t-test. […]"}}}
{"substance": "tinzaparin", "values": [{"measurement": "tumor growth progression", "setting": "[1]", "value": "halting tumor growth progression"}, {"measurement": "tumor necrosis (histology)", "setting": "MPanc96-luc cells", "value": "modest increase in necrotic area"}, {"measurement": "bleeding time", "setting": "[2]", "value": "extended the bleeding significantly"}, {"measurement": "pancreatic cancer cell adhesion", "setting": "human umbilical vein", "value": "comparable anti-adhesive potency"}]}
